Experimental data: patent US6603044B1, “Phthalamide derivatives, or salt thereof agrohorticultural insecticide, and method for using the same” (Nihon Nohyaku Co., Ltd., priority 1998, dated 2003)

What was measured:
[1] = test system: Diamond Back Moth (Plutella xylostella); experiment: Insecticidal effect on diamond back moth (Test Example 1); type: in vivo; conditions: 50 ppm; Chinese cabbage seedling with deposited eggs immersed about 30 seconds; 25° C.; six days after the immersion
Text: Insecticidal Effect on Diamond Back Moth (Plutella xylostella)
Adult diamondback moths were released and allowed to oviposit on a Chinese cabbage seedling. Two days after the release, the seedling having the eggs deposited thereon was immersed for about 30 seconds in a liquid chemical prepared by diluting a preparation containing each compound listed in Table 1, 2 or 3 as an active ingredient to adjust the concentration to 50 ppm. After air-dryness, it was allowed to stand in a room thermostatted at 25° C. Six days after the immersion, the hatched insects were counted. The mortality was calculated according to the following equation and the insecticidal effect was judged according to the criterion shown below. The test was carried out with triplicate groups of 10 insects.

[2] = test system: Smaller tea Tortrix (Adoxophyes sp.); experiment: Insecticidal effect on smaller tea tortrix (Test Example 3); type: in vivo; conditions: 50 ppm; tea leaf immersed 30 seconds; larvae; 25° C., humidity 70%; eight days after the inoculation
Protocol: Insecticidal Effect on Smaller tea Tortrix (Adoxophyes sp.)
A leaf of tea tree was immersed for 30 seconds in a liquid chemical containing each compound listed in Table 1, 2 or 3 as an active ingredient to adjust the concentration to 50 ppm. After air-dryness, the leaf was transferred to a plastic dish with a diameter of 9 cm and inoculated with larval smaller tea tortrix. Then, the leaf was allowed to stand in a room thermostatted at 25° C. at a humidity of 70%. Eight days after the inoculation, the dead and alive were counted, and the insecticidal effect was judged according to the same criterion as mentioned in Test Example 1. The test was carried out with triplicate groups of 10 insects.

With `CSCC(NC(=O)c1c(I)cccc1C(=O)Nc1ccc(C(F)(F)C(F)(F)F)cc1C)c1ccccc1` (centres unmarked) [compound 90] the “Test Example 1 insecticidal effect (mortality)” value [1] was “A (100)” and the “Test Example 3 insecticidal effect (mortality)” value [2] was “A (100)”.
In the case of `Cc1cc(OC(F)(F)F)ccc1NC(=O)c1cccc(I)c1C(=O)NC(C)CSC1CCCCC1` (centres unmarked) [compound 82], the “Test Example 1 insecticidal effect (mortality)” value [1] is reported as “A (100)” and the “Test Example 3 insecticidal effect (mortality)” value [2] is reported as “A (100)”.
With `Cc1cc(OC(F)(F)F)ccc1NC(=O)c1ccc2c(c1C(=O)NC(C)(C)CS(C)(=O)=O)OC(F)(F)O2` [compound 293] the “Test Example 1 insecticidal effect (mortality)” value [1] was “A (100)” and the “Test Example 3 insecticidal effect (mortality)” value [2] was “A (100)”.
In the case of `CSCC(C)NC(=O)c1c(C(=O)Nc2ccc(OC(F)(F)F)cc2C)ccc(F)c1F` (centres unmarked) [compound 44], the “Test Example 1 insecticidal effect (mortality)” value [1] is reported as “A (100)” and the “Test Example 3 insecticidal effect (mortality)” value [2] is reported as “A (100)”.
With `Cc1cc(C(F)(C(F)(F)F)C(F)(F)F)ccc1NC(=O)c1cccc(I)c1C(=O)NC(C)(C)CSCc1ccc(Cl)cc1` [compound 451] the “Test Example 1 insecticidal effect (mortality)” value [1] was “A (100)” and the “Test Example 3 insecticidal effect (mortality)” value [2] was “A (100)”.
In the case of `CSCNC(=O)c1ccccc1C(=O)Nc1ccc(C(F)(C(F)(F)F)C(F)(F)F)cc1C` [compound 298], the “Test Example 1 insecticidal effect (mortality)” value [1] is reported as “A (100)” and the “Test Example 3 insecticidal effect (mortality)” value [2] is reported as “A (100)”.
`CSCC(C)NC(=O)c1c(I)cccc1C(=O)Nc1ccc(OC(F)(F)F)cc1` (centres unmarked) [compound 8] was tested, and the “Test Example 1 insecticidal effect (mortality)” value [1] was “A (100)” and the “Test Example 3 insecticidal effect (mortality)” value [2] was “C (89-80)”.
`Cc1cc(C(F)(C(F)(F)F)C(F)(F)F)ccc1NC(=O)c1cccc(I)c1C(=O)NCCSC(C)C` [compound 60] was tested, and the “Test Example 1 insecticidal effect (mortality)” value [1] was “A (100)” and the “Test Example 3 insecticidal effect (mortality)” value [2] was “A (100)”.
With `CCSCC(C)NC(=O)c1c(I)cccc1C(=O)Nc1ccc(Cl)cc1C` (centres unmarked) [compound 24] the “Test Example 1 insecticidal effect (mortality)” value [1] was “A (100)” and the “Test Example 3 insecticidal effect (mortality)” value [2] was “A (100)”.
With `CSCC(NC(=O)c1c(I)cccc1C(=O)Nc1ccc(C(F)(C(F)(F)F)C(F)(F)F)cc1C)c1ccccc1` (centres unmarked) [compound 89] the “Test Example 1 insecticidal effect (mortality)” value [1] was “A (100)” and the “Test Example 3 insecticidal effect (mortality)” value [2] was “A (100)”.
`CCC(Oc1ccc(NC(=O)c2cccc(I)c2C(=O)NC(C)CSC)c(C)c1)=C(C(F)(F)F)C(F)(F)F` (centres unmarked) [compound 46] was tested, and the “Test Example 1 insecticidal effect (mortality)” value [1] was “A (100)” and the “Test Example 3 insecticidal effect (mortality)” value [2] was “A (100)”.
For `CSCCCC(C)NC(=O)c1cccc(Cl)c1C(=O)Nc1ccc(C(F)(C(F)(F)F)C(F)(F)F)cc1C` (centres unmarked) [compound 155], the “Test Example 1 insecticidal effect (mortality)” value [1] was “A (100)” and the “Test Example 3 insecticidal effect (mortality)” value [2] was “A (100)”.
In the case of `Cc1cc(C(F)(C(F)(F)F)C(F)(F)F)ccc1NC(=O)c1ccc2ccccc2c1C(=O)NC(C)C[S+](C)[O-]` (centres unmarked) [compound 334], the “Test Example 1 insecticidal effect (mortality)” value [1] is reported as “A (100)” and the “Test Example 3 insecticidal effect (mortality)” value [2] is reported as “A (100)”.
For `CC[S+]([O-])CCCC(C)NC(=O)c1c(I)cccc1C(=O)Nc1ccc(C(F)(C(F)(F)F)C(F)(F)F)cc1C` (centres unmarked) [compound 202], the “Test Example 1 insecticidal effect (mortality)” value [1] was “A (100)” and the “Test Example 3 insecticidal effect (mortality)” value [2] was “A (100)”.
`CCN(CCS(C)(=O)=O)C(=O)c1c(F)cccc1C(=O)Nc1ccc(C(F)(C(F)(F)F)C(F)(F)F)cc1C` [2-12] was tested, and the “Test Example 1 insecticidal effect (mortality)” value [1] was “A (100)” and the “Test Example 3 insecticidal effect (mortality)” value [2] was “A (100)”.
For `CCSCCNC(=O)c1c(I)cccc1C(=O)Nc1ccc(C(F)(F)C(F)(F)F)cc1C` [compound 72], the “Test Example 1 insecticidal effect (mortality)” value [1] was “A (100)” and the “Test Example 3 insecticidal effect (mortality)” value [2] was “A (100)”.
`CCCCSCC(C)NC(=O)c1c(I)cccc1C(=O)Nc1ccc(OC(F)(F)F)cc1C` (centres unmarked) [compound 63] was tested, and the “Test Example 1 insecticidal effect (mortality)” value [1] was “A (100)” and the “Test Example 3 insecticidal effect (mortality)” value [2] was “A (100)”.
For `CSCC(C)(C)NC(=O)c1c(I)cccc1C(=O)Nc1ccc(Oc2cccc(Cl)c2)cc1C` [compound 474], the “Test Example 1 insecticidal effect (mortality)” value [1] was “A (100)” and the “Test Example 3 insecticidal effect (mortality)” value [2] was “D (79-50)”.
With `CSCC(C)NC(=O)c1cc(Cl)ccc1C(=O)Nc1ccc(C(F)(F)C(F)(F)F)cc1C` (centres unmarked) [compound 43] the “Test Example 1 insecticidal effect (mortality)” value [1] was “A (100)” and the “Test Example 3 insecticidal effect (mortality)” value [2] was “A (100)”.
In the case of `CSCCC(C)NC(=O)c1c(I)cccc1C(=O)Nc1ccc(OC(F)(F)F)cc1C` (centres unmarked) [compound 164], the “Test Example 1 insecticidal effect (mortality)” value [1] is reported as “A (100)” and the “Test Example 3 insecticidal effect (mortality)” value [2] is reported as “A (100)”.
With `CSCCNC(=O)c1c(I)cccc1C(=O)Nc1ccc(C(F)(F)C(F)(F)F)cc1C` [compound 53] the “Test Example 1 insecticidal effect (mortality)” value [1] was “A (100)” and the “Test Example 3 insecticidal effect (mortality)” value [2] was “A (100)”.
For `CSC1CCCC1NC(=O)c1c(I)cccc1C(=O)Nc1ccc(C(F)(C(F)(F)F)C(F)(F)F)cc1C` (centres unmarked) [compound 329], the “Test Example 1 insecticidal effect (mortality)” value [1] was “A (100)” and the “Test Example 3 insecticidal effect (mortality)” value [2] was “A (100)”.
With `CSCC(C)NC(=O)c1ccc(I)cc1C(=O)Nc1ccc(C(F)(F)C(F)(F)F)cc1C` (centres unmarked) [compound 111] the “Test Example 1 insecticidal effect (mortality)” value [1] was “A (100)” and the “Test Example 3 insecticidal effect (mortality)” value [2] was “B (99-90)”.
For `Cc1cc(C(F)(C(F)(F)F)C(F)(F)F)ccc1NC(=O)c1cccc(I)c1C(=O)NC(C)CSC(C)(C)C` (centres unmarked) [compound 117], the “Test Example 1 insecticidal effect (mortality)” value [1] was “A (100)” and the “Test Example 3 insecticidal effect (mortality)” value [2] was “A (100)”.
With `CSCC(C)(C)NC(=O)c1c(C(=O)Nc2ccc(Cl)cc2Cl)cccc1[N+](=O)[O-]` [compound 326] the “Test Example 1 insecticidal effect (mortality)” value [1] was “A (100)” and the “Test Example 3 insecticidal effect (mortality)” value [2] was “A (100)”.
With `CSCC(C)NC(=O)c1c(C(=O)Nc2ccc(C(F)(F)C(F)(F)F)cc2C)cccc1[N+](=O)[O-]` (centres unmarked) [compound 105] the “Test Example 1 insecticidal effect (mortality)” value [1] was “A (100)” and the “Test Example 3 insecticidal effect (mortality)” value [2] was “A (100)”.
In the case of `CCS(=O)(=O)CCCC(C)NC(=O)c1c(Br)cccc1C(=O)Nc1ccc(C(F)(C(F)(F)F)C(F)(F)F)cc1C` (centres unmarked) [compound 215], the “Test Example 1 insecticidal effect (mortality)” value [1] is reported as “A (100)” and the “Test Example 3 insecticidal effect (mortality)” value [2] is reported as “A (100)”.
With `CCCN(CCSC)C(=O)c1c(F)cccc1C(=O)Nc1ccc(C(F)(C(F)(F)F)C(F)(F)F)cc1C` [2-3] the “Test Example 1 insecticidal effect (mortality)” value [1] was “A (100)” and the “Test Example 3 insecticidal effect (mortality)” value [2] was “A (100)”.
For `CCS(=O)(=O)CCCCC(C)NC(=O)c1c(I)cccc1C(=O)Nc1ccc(C(F)(C(F)(F)F)C(F)(F)F)cc1C` (centres unmarked) [compound 180], the “Test Example 1 insecticidal effect (mortality)” value [1] was “A (100)” and the “Test Example 3 insecticidal effect (mortality)” value [2] was “A (100)”.
In the case of `CSCC(C)NC(=O)c1c(C(=O)Nc2ccc(Oc3ncc(C(F)(F)F)cc3Cl)cc2C)cccc1[N+](=O)[O-]` (centres unmarked) [compound 224], the “Test Example 1 insecticidal effect (mortality)” value [1] is reported as “A (100)” and the “Test Example 3 insecticidal effect (mortality)” value [2] is reported as “A (100)”.
With `CCS(=O)(=O)CCCCC(C)NC(=O)c1c(I)cccc1C(=O)Nc1ccc(C(F)(F)C(F)(F)F)cc1C` (centres unmarked) [compound 179] the “Test Example 1 insecticidal effect (mortality)” value [1] was “A (100)” and the “Test Example 3 insecticidal effect (mortality)” value [2] was “A (100)”.
